Measured values as given in patent US5580552A, “7-glycosyloxybenzopyran derivative and antiallergic agent containing the derivative as active ingredient” (priority 1994, dated 1996).

What was measured:
[1] = tested on: experimental asthma model (airway resistance); test: Effect on experimental asthma model in guinea pigs (airway resistance); type: in vivo, guinea pigs (male hartley); conditions: 50 mg/kg oral (TABLE 6); for inhibition in vivo at 50 mg/kg: Cavia porcellus, po, 0.5 h
Protocol: Effect on experimental asthma model in guinea pigs
The asthma is typical allergic disease and we carried out this pharmacological test by well known experimental asthma model in guinea pigs in order to comfirm that the compounds of the present invention suppress the asthma. In the following, the method of the pharmacological test will be explained.
Method: Male hartley guinea pigs were immunized by intraperitoneal injection of saline (1ml) containing 5 mg of ovalbumine (OVA) three times at interval of one week. 2 weeks after final immunization, the animals were challenged by inhalation of 1% OVA-saline solution for 1 minute and then the airway resistance of the animals were measured for 30 minutes with PULMOS-1 (Medical Interface Project Station Inc.) after the inhalation. The compounds of the present invention (test compounds) suspended in 0.5% CMCNa were given orally at a dose of 50 mg/kg. As positive control group, Disodium Cromoglicate (DSCG), well known anti-allergic agent, in saline were injected at a dose of 20 mg/kg into the vein of the animals. As vehicle control group, only 0.5% CMCNa solution were given orally. The inhibition (%) of the airway resistance in vehicle control group was calculated according to equation 5 and the result was shown in TABLE 6. Each experimental group consisted of 5 guinea pigs. [formula]
A: Maximum airway resistance in vehicle control group
B: Maximum airway resistance in test compounds group or positive control group

[2] = tested on: contact dermatitis induced by picryl chloride; test: Effect on contact dermatitis induced by picryl chloride in mice; type: in vivo; conditions: 50 mg/kg oral, 1 hour before and 16 hours after challenge, 24 hours after challenge; for inhibition in vivo at 50 mg/kg: Mus musculus, po, 24 h, read-out: Inhibition (%) against the increase of ear thickness
Protocol: Effect on contact dermatitis induced by picryl chloride in mice
The delayed type hypersensitization is inhibited by steroid drugs,but can not be effected by known anti-allergic agents. In the following, the method of the pharmacological test will be explained.
Method: Mice, shaved their abdominal skin on previous day, were immunized by applying 0.1 ml of acetone containing 7 mg of picryl chloride to the skin of the abdomen. 7 days after immunization, the thickness of the ear was measured with a dial thickness gauge, then mice were challenged by painting 5 μl of 1% picryl chloride olive oil solution to each side skin of left ear. 24 hours after challenge, the thickness of the left ear was measured again and the increase (%) of thickness was calculated according to equation 2. The compounds of the present invention (test compounds) suspended in 0.5% CMCNa were forcibly administered orally at a dose of 50 mg/kg at 1 hour before and 16 hours after challenge. As vehicle control group, only 0.5% CMCNa solution were administered orally, and as positive control group, Prednisolone, steroid hormone, and Tranilast were administered orally at the doses of 10 mg/kg and 100 mg/kg, respectively.
Increase (%)=(A-B)/B×100 (Equation 2)
A: thickness of the ear at 24 hours after challenge
B: thickness of the ear before challenge
Inhibition (%)=(C-D)/C×100 (equation 3)
C: The increase (%) in vehicle control group
D: The increase (%) in test compounds group or positive control group

[3] = tested on: homologous passive cutaneous anaphylaxis (PCA) reaction; test: Effect on homologous passive cutaneous anaphylaxis (PCA) reaction in rats; type: in vivo, rats (male wistar); conditions: 50 mg/kg oral, 1 hour before challenge (TABLE 2); for inhibition in vivo at 50 mg/kg: Rattus norvegicus, po, 0.5 h
Protocol: Effect on homologous passive cutaneous anaphylaxis (PCA) reaction in rats.
This experimental animal model is caused by immediate type allergic reaction namely, antigen-antibody reaction. In the following, the method of this pharmacological test will be explained.
Method: Male wistar rats (9 weeks old) were intradermally administered 0.05 ml of anti-serum against dinitrophenylated ascaris (DNP-As) into two sites on the shaved dorsal skin. 48 hours later, 7-glycosyloxybenzopyran derivatives (test compounds) suspended in 0.5% sodium carboxymethylcellulose (CMCNa) were given orally at a dose of 50 mg/kg to the animals. One hour after administration of Test compounds, the animals were induced anaphylaxis by injection of saline (1 ml) dissolving 5 mg of Evans Blue and 1 mg of Trinitrophenylated ascaris (TNP-As) into the tail vein of the animals. 30 minutes after induction of anaphylaxis, animals were anesthetized by ether and killed by bleeding, and were flayed dorsal skin. The determination of extravasated dye was performed according to the method of Katayama et al. (Microbiol. Immunol., Vol.22, P 89-101, 1978). As vehicle control group, only 0.5% CMCNa solution was administered orally, and as positive control group, Tranilast suspended in 0.5% CMCNa was administered orally at a dose of 100 mg/kg to the animals with the same method as the test compounds groups. Each experimental group consisted of 5 rats. [formula]

Row | SMILES | inhibition in vivo at 50 mg/kg [1] | inhibition in vivo at 50 mg/kg [2] | inhibition in vivo at 50 mg/kg [3] | Inhibition (%) of the airway resistance [1] | Inhibition (%) against the increase of ear thickness [2] | Inhibition (%) of PCA reaction [3]
1 | COc1c(O)c(=O)oc2cc(O[C@@H]3O[C@H](CO)[C@@H](O)[C@H](O)[C@H]3O)ccc12 [compound 109] | 53.1% | 43.8% | 42.1% |  |  | 
2 | CCCCOc1c(O)c(=O)oc2cc(O[C@@H]3O[C@H](CO)[C@@H](O)[C@H](O)[C@H]3O)ccc12 [compound 110] | 56.5% | 42.9% | 41.4% |  |  | 
3 | CCCCCCCCCCOc1c(O)c(=O)oc2cc(O[C@@H]3O[C@H](CO)[C@@H](O)[C@H](O)[C@H]3O)ccc12 [compound 111] | 61.3% | 41.2% | 43.1% |  |  | 
4 | CCCCCCCCCCCCOc1c(O)c(=O)oc2cc(O[C@@H]3O[C@H](CO)[C@@H](O)[C@H](O)[C@H]3O)ccc12 [compound 112] | 57.2% | 43.3% | 44.5% |  |  | 
5 | CC(C)Oc1c(O)c(=O)oc2cc(O[C@@H]3O[C@H](CO)[C@@H](O)[C@H](O)[C@H]3O)ccc12 [compound 113] | 56.6% | 45.5% | 40.3% |  |  | 
6 | CC1CCC(Oc2c(O)c(=O)oc3cc(O[C@@H]4O[C@H](CO)[C@@H](O)[C@H](O)[C@H]4O)ccc23)CC1 (stereo partly drawn) [compound 114] | 59.7% | 47.3% | 45.3% |  |  | 
7 | C=COc1c(O)c(=O)oc2cc(O[C@@H]3O[C@H](CO)[C@@H](O)[C@H](O)[C@H]3O)ccc12 [compound 115] | 53.1% | 40.2% | 42.2% |  |  | 
8 | CCC=CCCOc1c(O)c(=O)oc2cc(O[C@@H]3O[C@H](CO)[C@@H](O)[C@H](O)[C@H]3O)ccc12 [compound 116] | 62.8% | 44.4% | 46.1% |  |  | 
9 | CC(C)=CCC/C(C)=C/COc1c(O)c(=O)oc2cc(O[C@@H]3O[C@H](CO)[C@@H](O)[C@H](O)[C@H]3O)ccc12 [compound 117] | 49.4% | 42.3% | 40.3% |  |  | 
10 | O=c1oc2cc(O[C@@H]3O[C@H](CO)[C@@H](O)[C@H](O)[C@H]3O)ccc2c(OCc2ccccc2)c1O [compound 118] |  |  |  | 45.3% | 43.5% | 41.2%
11 | O=c1oc2cc(O[C@H]3O[C@H](CO)[C@@H](O)[C@H](O)[C@@H]3O)ccc2c(O)c1O [compound 130] |  |  |  | 40.2% | 41.2% | 40.1%
12 | COc1c(O)c(=O)oc2cc(O[C@H]3O[C@H](CO)[C@@H](O)[C@H](O)[C@@H]3O)ccc12 [compound 131] | 42.5% | 40.9% | 41.2% |  |  | 
13 | CCCCCCCCOc1c(O)c(=O)oc2cc(O[C@H]3O[C@H](CO)[C@@H](O)[C@H](O)[C@@H]3O)ccc12 [compound 132] | 50.1% | 43.2% | 42.9% |  |  | 
14 | CCCCCCCCCCOc1c(O)c(=O)oc2cc(O[C@H]3O[C@H](CO)[C@@H](O)[C@H](O)[C@@H]3O)ccc12 [compound 133] | 43.2% | 41.4% | 42.3% |  |  | 
15 | CCCCCCCCCCCCOc1c(O)c(=O)oc2cc(O[C@H]3O[C@H](CO)[C@@H](O)[C@H](O)[C@@H]3O)ccc12 [compound 134] | 45.9% | 43.7% | 41.5% |  |  | 
16 | CC(C)Oc1c(O)c(=O)oc2cc(O[C@H]3O[C@H](CO)[C@@H](O)[C@H](O)[C@@H]3O)ccc12 [compound 135] | 47.1% | 44.6% | 40.3% |  |  | 
17 | CC1CCC(Oc2c(O)c(=O)oc3cc(O[C@H]4O[C@H](CO)[C@@H](O)[C@H](O)[C@@H]4O)ccc23)CC1 (stereo partly drawn) [compound 136] | 51.2% | 41.2% | 42.2% |  |  | 
18 | C=COc1c(O)c(=O)oc2cc(O[C@H]3O[C@H](CO)[C@@H](O)[C@H](O)[C@@H]3O)ccc12 [compound 137] | 45.4% | 43.5% | 41.7% |  |  | 
19 | CCC=CCCOc1c(O)c(=O)oc2cc(O[C@H]3O[C@H](CO)[C@@H](O)[C@H](O)[C@@H]3O)ccc12 [compound 138] | 50.8% | 44.7% | 42.5% |  |  | 
20 | CC(C)=CCC/C(C)=C/COc1c(O)c(=O)oc2cc(O[C@H]3O[C@H](CO)[C@@H](O)[C@H](O)[C@@H]3O)ccc12 [compound 139] | 47.2% | 42.1% | 41.8% |  |  | 
21 | O=c1oc2cc(O[C@H]3O[C@H](CO)[C@@H](O)[C@H](O)[C@@H]3O)ccc2c(OCc2ccccc2)c1O [compound 140] | 45.1% | 40.1% | 40.4% |  |  | 
22 | CC(=O)Oc1c(OC(C)C)c2ccc(O[C@@H]3O[C@H](COCc4ccccc4)[C@@H](OCc4ccccc4)[C@H](OCc4ccccc4)[C@H]3OCc3ccccc3)cc2oc1=O [compound 145] | 41.9% | 42.1% | 40.2% |  |  | 
23 | O=c1oc2cc(O[C@@H]3O[C@H](CO)[C@@H](O)[C@H](O)[C@H]3O)ccc2c(O)c1O [compound 151] |  |  |  | 49.7% | 46.5% | 45.4%
24 | O=c1oc2cc(O[C@@H]3O[C@H](CO)[C@@H](O)[C@H](O)[C@H]3O)ccc2c(OCc2ccccc2)c1O [compound 152] | 52.4% | 43.2% | 41.3% |  |  | 
25 | COc1c(O)c(=O)oc2cc(O[C@@H]3O[C@H](CO)[C@@H](O)[C@H](O)[C@H]3O)ccc12 [compound 153] |  |  |  | 54.3% | 44.7% | 42.4%
26 | CCCCCCCCCCOc1c(O)c(=O)oc2cc(O[C@@H]3O[C@H](CO)[C@@H](O)[C@H](O)[C@H]3O)ccc12 [compound 154] |  |  |  | 59.2% | 41.6% | 43.2%
27 | CCCCCCCCCCCCOc1c(O)c(=O)oc2cc(O[C@@H]3O[C@H](CO)[C@@H](O)[C@H](O)[C@H]3O)ccc12 [compound 155] |  |  |  | 57.6% | 40.9% | 42.9%
28 | CC(C)Oc1c(O)c(=O)oc2cc(O[C@@H]3O[C@H](CO)[C@@H](O)[C@H](O)[C@H]3O)ccc12 [compound 156] |  |  |  | 48.2% | 43.2% | 42.1%
